# Experimental data taken from ChEMBL document CHEMBL5465560, “Selectivity Literature for EUbOPEN Chemogenomic Library” (2024).
# Experiments:
# [1] = target: Serine/threonine-protein kinase Nek7 (Homo sapiens) (UniProt Q8TDX7); test: Selectivity interaction (KinomeScan (DiscoverX)) EUB0001049a NEK7; settings: at 1 µM
# [2] = target: T1, Eukaryotic translation initiation factor 2-alpha kinase 3 (Homo sapiens) (UniProt Q9NZJ5); test: Selectivity interaction (Kinase panel (KiNativ target engagement assay in Jurkat cells)) EUB0001635a EIF2AK3; assay type: cell-based; settings: Selectivity number of off-targets 0.0, Selectivity number of targets 233.0, Source Knowledge https://www.sciencedirect.com/science/article/pii/S2451945619300674?via%3Dihub, at 1 µM
# T1 sequence (whole entry): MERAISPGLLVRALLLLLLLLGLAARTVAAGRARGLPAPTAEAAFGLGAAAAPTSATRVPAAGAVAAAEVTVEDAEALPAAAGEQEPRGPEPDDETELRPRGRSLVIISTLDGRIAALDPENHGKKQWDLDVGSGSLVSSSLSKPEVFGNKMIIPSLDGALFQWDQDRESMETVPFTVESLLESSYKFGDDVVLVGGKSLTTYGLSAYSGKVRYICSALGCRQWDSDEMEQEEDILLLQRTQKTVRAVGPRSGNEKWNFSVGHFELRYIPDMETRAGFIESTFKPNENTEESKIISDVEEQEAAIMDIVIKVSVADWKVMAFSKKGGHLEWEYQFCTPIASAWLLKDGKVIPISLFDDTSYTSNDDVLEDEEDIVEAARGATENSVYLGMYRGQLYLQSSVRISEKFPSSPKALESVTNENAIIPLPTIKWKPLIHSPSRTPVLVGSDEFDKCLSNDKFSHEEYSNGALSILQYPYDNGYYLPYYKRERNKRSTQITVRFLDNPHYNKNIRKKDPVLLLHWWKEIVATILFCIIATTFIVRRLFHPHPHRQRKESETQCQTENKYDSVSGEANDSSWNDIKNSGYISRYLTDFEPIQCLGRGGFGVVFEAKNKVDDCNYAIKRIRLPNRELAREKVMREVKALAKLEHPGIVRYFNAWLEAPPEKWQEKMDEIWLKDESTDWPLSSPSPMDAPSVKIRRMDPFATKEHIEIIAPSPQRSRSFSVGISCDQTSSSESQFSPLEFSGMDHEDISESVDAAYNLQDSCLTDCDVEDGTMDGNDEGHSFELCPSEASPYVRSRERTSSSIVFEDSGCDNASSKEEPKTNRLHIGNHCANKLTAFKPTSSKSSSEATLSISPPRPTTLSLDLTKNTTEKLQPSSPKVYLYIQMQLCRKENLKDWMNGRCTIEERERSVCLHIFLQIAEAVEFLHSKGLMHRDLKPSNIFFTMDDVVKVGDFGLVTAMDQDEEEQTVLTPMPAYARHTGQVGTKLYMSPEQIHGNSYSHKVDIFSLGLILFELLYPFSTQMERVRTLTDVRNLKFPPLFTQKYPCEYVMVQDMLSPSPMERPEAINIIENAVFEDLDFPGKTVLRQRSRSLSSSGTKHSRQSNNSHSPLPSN
# [3] = tested on: Receptor-type tyrosine-protein kinase FLT3 (Homo sapiens), P36888 [UNDEFINED MUTATION]; settings: at 10 µM
# Receptor-type tyrosine-protein kinase FLT3 (Homo sapiens), P36888 [UNDEFINED MUTATION], sequence (P36888 whole entry, looked up, change not shown): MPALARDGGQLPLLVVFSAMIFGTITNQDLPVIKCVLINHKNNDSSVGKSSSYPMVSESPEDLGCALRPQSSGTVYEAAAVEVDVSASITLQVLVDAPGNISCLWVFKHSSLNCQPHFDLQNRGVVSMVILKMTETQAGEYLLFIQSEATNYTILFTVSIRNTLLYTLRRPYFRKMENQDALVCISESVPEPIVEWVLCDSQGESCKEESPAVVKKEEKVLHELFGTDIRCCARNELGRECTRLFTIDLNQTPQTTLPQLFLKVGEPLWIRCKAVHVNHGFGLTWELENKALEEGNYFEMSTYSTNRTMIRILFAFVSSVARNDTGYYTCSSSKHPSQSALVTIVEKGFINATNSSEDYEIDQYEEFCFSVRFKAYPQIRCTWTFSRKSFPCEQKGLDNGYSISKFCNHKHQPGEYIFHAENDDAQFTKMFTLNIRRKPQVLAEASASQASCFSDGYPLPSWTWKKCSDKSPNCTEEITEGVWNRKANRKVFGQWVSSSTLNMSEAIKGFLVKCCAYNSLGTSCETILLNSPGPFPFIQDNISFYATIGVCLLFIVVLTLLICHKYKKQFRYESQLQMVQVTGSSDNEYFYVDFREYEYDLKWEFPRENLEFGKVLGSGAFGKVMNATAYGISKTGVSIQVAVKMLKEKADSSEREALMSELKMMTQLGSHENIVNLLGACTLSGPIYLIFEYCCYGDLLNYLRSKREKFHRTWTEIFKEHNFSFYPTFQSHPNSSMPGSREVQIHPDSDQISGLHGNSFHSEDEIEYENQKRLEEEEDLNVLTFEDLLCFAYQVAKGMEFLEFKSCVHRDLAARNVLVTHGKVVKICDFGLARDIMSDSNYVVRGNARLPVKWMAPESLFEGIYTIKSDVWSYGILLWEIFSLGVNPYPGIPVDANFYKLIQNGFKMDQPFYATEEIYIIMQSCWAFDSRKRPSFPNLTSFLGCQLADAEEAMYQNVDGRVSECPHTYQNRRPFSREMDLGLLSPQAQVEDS
# [4] = target: T2, Serine/threonine-protein kinase TNNI3K (Homo sapiens) (UniProt Q59H18); settings: at 10 µM
# T2 sequence (whole entry): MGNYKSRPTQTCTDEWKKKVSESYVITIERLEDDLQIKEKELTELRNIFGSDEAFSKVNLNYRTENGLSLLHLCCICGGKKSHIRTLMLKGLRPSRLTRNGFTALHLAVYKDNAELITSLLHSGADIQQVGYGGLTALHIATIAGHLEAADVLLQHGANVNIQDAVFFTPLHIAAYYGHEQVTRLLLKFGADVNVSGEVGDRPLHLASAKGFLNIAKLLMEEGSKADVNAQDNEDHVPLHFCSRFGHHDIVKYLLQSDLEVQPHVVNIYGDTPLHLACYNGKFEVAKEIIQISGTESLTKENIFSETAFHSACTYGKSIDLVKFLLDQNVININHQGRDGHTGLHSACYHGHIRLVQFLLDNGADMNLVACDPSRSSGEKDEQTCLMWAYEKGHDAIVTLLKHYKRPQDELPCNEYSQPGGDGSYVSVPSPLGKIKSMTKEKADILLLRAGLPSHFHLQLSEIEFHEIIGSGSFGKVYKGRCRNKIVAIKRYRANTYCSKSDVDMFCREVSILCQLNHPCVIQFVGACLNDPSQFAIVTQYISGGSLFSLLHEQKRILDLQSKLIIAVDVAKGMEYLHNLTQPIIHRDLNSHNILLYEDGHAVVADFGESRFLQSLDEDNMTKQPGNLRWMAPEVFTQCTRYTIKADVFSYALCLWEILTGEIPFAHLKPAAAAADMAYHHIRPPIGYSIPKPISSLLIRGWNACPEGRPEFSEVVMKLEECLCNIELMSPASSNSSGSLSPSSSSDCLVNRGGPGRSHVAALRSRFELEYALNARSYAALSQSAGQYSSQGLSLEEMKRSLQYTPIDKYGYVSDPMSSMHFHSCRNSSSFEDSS
# [5] = target: Serine/threonine-protein kinase Nek6 (Homo sapiens) (UniProt Q9HC98); test: Selectivity interaction (KinomeScan (DiscoverX)) EUB0001619a NEK6; settings: at 1 µM
# Serine/threonine-protein kinase Nek6 (Homo sapiens), sequence (Q9HC98 whole entry): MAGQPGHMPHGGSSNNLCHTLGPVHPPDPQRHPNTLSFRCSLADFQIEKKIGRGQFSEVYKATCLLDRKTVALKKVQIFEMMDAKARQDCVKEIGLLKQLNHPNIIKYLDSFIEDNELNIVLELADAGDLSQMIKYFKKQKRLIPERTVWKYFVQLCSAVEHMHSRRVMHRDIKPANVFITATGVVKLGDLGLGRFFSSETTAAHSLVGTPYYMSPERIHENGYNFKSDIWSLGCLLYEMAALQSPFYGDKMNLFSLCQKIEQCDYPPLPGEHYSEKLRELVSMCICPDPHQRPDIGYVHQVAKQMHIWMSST
# [6] = target: Tyrosine-protein kinase receptor Tie-1 (Homo sapiens) (UniProt P35590); test: Selectivity interaction (KinomeScan (DiscoverX)) EUB0000695a TIE1; settings: at 100 nM
# Tyrosine-protein kinase receptor Tie-1 (Homo sapiens), sequence (P35590 whole entry): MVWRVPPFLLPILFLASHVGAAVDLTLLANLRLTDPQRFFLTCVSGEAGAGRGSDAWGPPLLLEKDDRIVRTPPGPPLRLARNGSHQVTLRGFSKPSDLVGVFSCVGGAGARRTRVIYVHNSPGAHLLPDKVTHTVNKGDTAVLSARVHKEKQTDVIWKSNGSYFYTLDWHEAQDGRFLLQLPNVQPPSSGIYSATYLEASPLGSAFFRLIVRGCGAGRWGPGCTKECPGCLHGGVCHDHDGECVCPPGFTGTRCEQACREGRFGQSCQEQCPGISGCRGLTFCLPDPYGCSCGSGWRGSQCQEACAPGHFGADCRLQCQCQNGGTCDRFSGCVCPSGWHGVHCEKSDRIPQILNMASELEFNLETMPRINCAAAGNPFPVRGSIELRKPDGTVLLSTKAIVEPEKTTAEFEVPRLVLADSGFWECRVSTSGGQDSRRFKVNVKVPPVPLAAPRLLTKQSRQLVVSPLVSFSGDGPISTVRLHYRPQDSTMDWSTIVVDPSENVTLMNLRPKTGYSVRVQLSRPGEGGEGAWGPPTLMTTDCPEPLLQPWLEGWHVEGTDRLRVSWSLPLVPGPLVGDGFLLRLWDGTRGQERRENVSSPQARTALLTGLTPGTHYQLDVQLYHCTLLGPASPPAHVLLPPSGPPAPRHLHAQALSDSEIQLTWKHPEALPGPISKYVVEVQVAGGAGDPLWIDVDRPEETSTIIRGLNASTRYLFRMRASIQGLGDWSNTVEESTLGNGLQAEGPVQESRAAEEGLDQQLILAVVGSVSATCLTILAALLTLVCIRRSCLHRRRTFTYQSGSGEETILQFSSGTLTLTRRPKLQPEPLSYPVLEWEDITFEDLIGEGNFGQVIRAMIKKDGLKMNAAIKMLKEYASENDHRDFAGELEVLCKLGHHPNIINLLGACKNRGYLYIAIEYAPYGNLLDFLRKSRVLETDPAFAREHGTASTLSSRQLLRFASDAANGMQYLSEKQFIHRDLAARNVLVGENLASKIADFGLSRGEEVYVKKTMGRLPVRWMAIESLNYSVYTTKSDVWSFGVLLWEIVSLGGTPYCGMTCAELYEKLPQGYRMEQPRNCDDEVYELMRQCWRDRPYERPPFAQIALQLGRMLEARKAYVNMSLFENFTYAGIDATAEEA
# [7] = target: Serine/threonine-protein kinase Nek7 (Homo sapiens) (UniProt Q8TDX7); test: Selectivity interaction (KinomeScan (DiscoverX)) EUB0000695a NEK7; settings: at 100 nM
# [8] = target: Kappa-type opioid receptor (Homo sapiens, UniProt P41145); test: Selectivity interaction (Panel of kinases, GPCRs, ion channels and transporters (enzymatic assay)) EUB0000223bCl OPRK1
# Kappa-type opioid receptor, sequence (P41145 whole entry): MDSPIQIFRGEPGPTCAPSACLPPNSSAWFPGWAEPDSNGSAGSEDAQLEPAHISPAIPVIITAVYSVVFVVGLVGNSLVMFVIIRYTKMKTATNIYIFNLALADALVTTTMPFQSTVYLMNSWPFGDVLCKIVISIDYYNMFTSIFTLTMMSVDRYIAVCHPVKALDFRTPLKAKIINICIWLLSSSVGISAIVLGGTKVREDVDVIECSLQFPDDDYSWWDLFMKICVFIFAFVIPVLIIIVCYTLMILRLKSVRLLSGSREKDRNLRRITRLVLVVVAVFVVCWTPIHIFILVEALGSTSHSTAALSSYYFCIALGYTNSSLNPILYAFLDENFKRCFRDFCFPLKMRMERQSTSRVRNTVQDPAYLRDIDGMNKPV
# [9] = target: Mitogen-activated protein kinase kinase kinase kinase 5 (Homo sapiens) (UniProt Q9Y4K4); test: Selectivity interaction (ProQinase) EUB0000171b MAP4K5
# Mitogen-activated protein kinase kinase kinase kinase 5 (Homo sapiens), sequence (Q9Y4K4 whole entry, looked up): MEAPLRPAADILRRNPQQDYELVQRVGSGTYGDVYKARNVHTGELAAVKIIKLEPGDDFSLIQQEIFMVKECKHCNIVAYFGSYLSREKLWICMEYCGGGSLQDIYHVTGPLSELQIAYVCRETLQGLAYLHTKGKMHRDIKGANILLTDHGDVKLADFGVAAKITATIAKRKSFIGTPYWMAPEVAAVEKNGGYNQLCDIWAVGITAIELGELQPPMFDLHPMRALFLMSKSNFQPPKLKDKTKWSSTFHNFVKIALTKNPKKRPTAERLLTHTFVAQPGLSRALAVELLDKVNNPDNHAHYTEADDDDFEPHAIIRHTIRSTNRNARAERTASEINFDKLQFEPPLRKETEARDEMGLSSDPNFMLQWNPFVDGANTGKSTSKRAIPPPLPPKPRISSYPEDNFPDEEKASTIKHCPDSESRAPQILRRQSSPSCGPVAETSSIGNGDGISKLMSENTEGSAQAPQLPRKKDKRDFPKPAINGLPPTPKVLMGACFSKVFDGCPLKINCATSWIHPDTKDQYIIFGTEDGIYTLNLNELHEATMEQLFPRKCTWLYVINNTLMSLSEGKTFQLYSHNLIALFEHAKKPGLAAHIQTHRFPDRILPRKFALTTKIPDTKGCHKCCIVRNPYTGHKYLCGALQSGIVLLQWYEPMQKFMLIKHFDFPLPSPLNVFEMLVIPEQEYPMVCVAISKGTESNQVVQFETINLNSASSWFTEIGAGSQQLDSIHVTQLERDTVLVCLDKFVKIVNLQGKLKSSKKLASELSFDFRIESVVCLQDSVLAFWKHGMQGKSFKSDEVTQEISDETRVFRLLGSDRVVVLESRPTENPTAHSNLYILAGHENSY
# [10] = target: RAC-gamma serine/threonine-protein kinase (Homo sapiens, UniProt Q9Y243); test: Selectivity interaction (ProQinase) EUB0000171b AKT3
# RAC-gamma serine/threonine-protein kinase, sequence (Q9Y243 whole entry): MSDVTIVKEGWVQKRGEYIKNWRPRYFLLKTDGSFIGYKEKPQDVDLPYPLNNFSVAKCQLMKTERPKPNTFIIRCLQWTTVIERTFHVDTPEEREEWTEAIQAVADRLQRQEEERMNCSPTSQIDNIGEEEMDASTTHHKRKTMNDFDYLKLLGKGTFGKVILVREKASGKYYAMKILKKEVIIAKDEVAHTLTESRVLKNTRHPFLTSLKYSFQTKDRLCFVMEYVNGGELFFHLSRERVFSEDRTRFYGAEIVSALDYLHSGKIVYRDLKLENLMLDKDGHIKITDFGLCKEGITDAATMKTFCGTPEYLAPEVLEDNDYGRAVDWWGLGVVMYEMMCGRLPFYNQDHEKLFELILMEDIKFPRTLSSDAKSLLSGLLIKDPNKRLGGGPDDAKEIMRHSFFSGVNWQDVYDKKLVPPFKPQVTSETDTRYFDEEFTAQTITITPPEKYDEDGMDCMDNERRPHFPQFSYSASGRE
# Serine/threonine-protein kinase Nek7 (Homo sapiens), sequence (Q8TDX7 whole entry, looked up): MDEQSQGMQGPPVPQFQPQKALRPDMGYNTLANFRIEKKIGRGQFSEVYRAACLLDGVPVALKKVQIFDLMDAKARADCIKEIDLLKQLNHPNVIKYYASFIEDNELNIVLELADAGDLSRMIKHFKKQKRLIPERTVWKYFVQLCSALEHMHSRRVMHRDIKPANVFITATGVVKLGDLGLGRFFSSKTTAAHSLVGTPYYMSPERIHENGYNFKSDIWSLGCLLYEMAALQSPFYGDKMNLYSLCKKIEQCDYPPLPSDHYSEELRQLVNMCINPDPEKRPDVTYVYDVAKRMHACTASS
structure (smiles),measurement,setting,value
COc1cc(Nc2nc(C)cc(-c3cnn4nc(OC)ccc34)n2)cc(C(F)(F)F)c1,% of control,[1],83%
C=CC(=O)Nc1ccc(C(=O)Nc2[nH]nc3c2CN(C(=O)N[C@H](CN(C)C)c2ccccc2)C3(C)C)cc1,% of engagement,[2],-7.7%
CCN(CC)CCCCNc1ncc2cc(-c3cc(OC)cc(OC)c3)c(NC(=O)NC(C)(C)C)nc2n1,% of control,[3],100%
Cc1cc([C@@H](C)Nc2ccccc2C(=O)O)c2nc(N3CCOCC3)cc(=O)n2c1 [AZD-6482],% of control,[4],88%
N#Cc1cccc(-c2c[nH]c3ncnc(N4CCOCC4)c23)c1,% of control,[5],100%
Cc1cc(F)c(C(=O)Nc2cccc(-c3nncn3C(C)C)n2)cc1-n1cnc(C2CC2)c1,% of control,[6],87%
same,% of control,[7],100%
COc1cc(C(=O)N2CC[C@@H](O)[C@@H](N)C2)cc2nc(-c3cc4ccccc4n3CC3CC3)n(C)c12,pXC50,[8],< 4 M
C=CC(=O)Nc1cccc(C(=O)Nc2ccc(Nc3cc(-c4[nH]c(SC)nc4C)ccn3)cc2)c1,% of control,[9]; at 1 µM,71%
same,% of control,[9]; at 5 µM,49%
same,% of control,[10]; at 1 µM,95%
same,% of control,[10]; at 5 µM,90%
